In PubChem BioAssay AID1963977 (Molecular Pharmacology Branch, DTP, NCI, 2024):
Blank lines part the entries; values can stand above or below the molecule they belong to.

System: 624824-186-R-J3-PDC multicell spheroids, viability
Assay: Anticancer human tumor 624824-186-R-J3-PDC patient-derived colon adenocarcinoma cell line growth inhibition [PI3K]
Conditions: for IC50: curve of first compound; for viability, T/C: stronger effect = lower value
Outline: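 Stroma-containing spheroids: tumor line, pooled-donor HUVEC, hMSC. Treatments: targeted agents with PI3K inhibitors. Dosing: clinically relevant, half-log spacing, 10 microM ceiling without known Cmax. Read-out: cell viability.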

[1] = second compound 0.0316 µM, first compound 0.000316 µM
[2] = second compound 0.0316 µM, first compound 0.001 µM
[3] = second compound 0.0316 µM, first compound 0.00316 µM
[4] = second compound 0.0316 µM, first compound 0.01 µM
[5] = second compound 0.0316 µM, first compound 0.0316 µM
[6] = second compound 0.0316 µM, first compound 0.1 µM
[7] = second compound 0.1 µM, first compound 0.000316 µM
[8] = second compound 0.1 µM, first compound 0.001 µM
[9] = second compound 0.1 µM, first compound 0.00316 µM
[10] = second compound 0.1 µM, first compound 0.01 µM
[11] = second compound 0.1 µM, first compound 0.0316 µM
[12] = second compound 0.1 µM, first compound 0.1 µM
[13] = second compound 0.316 µM, first compound 0.000316 µM
[14] = second compound 0.316 µM, first compound 0.001 µM
[15] = second compound 0.316 µM, first compound 0.00316 µM
[16] = second compound 0.316 µM, first compound 0.01 µM
[17] = second compound 0.316 µM, first compound 0.0316 µM
[18] = second compound 0.316 µM, first compound 0.1 µM
[19] = second compound 1 µM, first compound 0.000316 µM
[20] = second compound 1 µM, first compound 0.001 µM
[21] = second compound 1 µM, first compound 0.00316 µM
[22] = second compound 1 µM, first compound 0.01 µM
[23] = second compound 1 µM, first compound 0.0316 µM
[24] = second compound 1 µM, first compound 0.1 µM
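Note: spheroids exposed to agents for seven days before luminescence read.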
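Throughout, for viability, T/C: luminescent signal used as a stand-in for spheroid viability; percent viability relative to DMSO vehicle control wells taken as 100%.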

IC50 (second compound 0.00316 µM): > 100 nM | IC50 (second compound 0.01 µM): > 100 nM | IC50 (second compound 0.0316 µM): > 100 nM | IC50 (second compound 0.1 µM): > 100 nM | IC50 (second compound 0.316 µM): > 100 nM | IC50 (second compound 1 µM): > 100 nM
SMILES: CC(=O)c1c(C)c2cnc(Nc3ccc(N4CCNCC4)cn3)nc2n(C2CCCC2)c1=O + CC(Nc1ccc2c(c1)OCCn1cc(N3C(=O)OCC3C(F)F)nc1-2)C(N)=O
viability, T/C (second compound 0.00316 µM, first compound 0.000316 µM): 100% | viability, T/C (second compound 0.00316 µM, first compound 0.001 µM): 101% | viability, T/C (second compound 0.00316 µM, first compound 0.00316 µM): 101% | viability, T/C (second compound 0.00316 µM, first compound 0.01 µM): 105% | viability, T/C (second compound 0.00316 µM, first compound 0.0316 µM): 99% | viability, T/C (second compound 0.00316 µM, first compound 0.1 µM): 110% | viability, T/C (second compound 0.01 µM, first compound 0.000316 µM): 108% | viability, T/C (second compound 0.01 µM, first compound 0.001 µM): 94.6% | viability, T/C (second compound 0.01 µM, first compound 0.00316 µM): 106% | viability, T/C (second compound 0.01 µM, first compound 0.01 µM): 102% | viability, T/C (second compound 0.01 µM, first compound 0.0316 µM): 108% | viability, T/C (second compound 0.01 µM, first compound 0.1 µM): 106% | viability, T/C [1]: 101% | viability, T/C [2]: 105% | viability, T/C [3]: 84.5% | viability, T/C [4]: 105% | viability, T/C [5]: 104% | viability, T/C [6]: 97.3% | viability, T/C [7]: 101% | viability, T/C [8]: 99% | viability, T/C [9]: 95.7% | viability, T/C [10]: 107% | viability, T/C [11]: 107% | viability, T/C [12]: 102% | viability, T/C [13]: 99.2% | viability, T/C [14]: 95.5% | viability, T/C [15]: 106% | viability, T/C [16]: 99.8% | viability, T/C [17]: 108% | viability, T/C [18]: 104% | viability, T/C [19]: 91.3% | viability, T/C [20]: 96% | viability, T/C [21]: 97.9% | viability, T/C [22]: 94.8% | viability, T/C [23]: 88.5% | viability, T/C [24]: 81.3%

IC50 (second compound 0.0316 µM): > 100 nM | IC50 (second compound 0.1 µM): > 100 nM | IC50 (second compound 0.316 µM): > 100 nM | IC50 (second compound 1 µM): > 100 nM | IC50 (second compound 3.16 µM): 91.8 nM | IC50 (second compound 10 µM): 61.9 nM
SMILES: CC(C)n1nc(-c2ccc3oc(N)nc3c2)c2c(N)ncnc21 + CC(Nc1ncnc2nc[nH]c12)c1cc2cccc(Cl)c2c(=O)n1-c1ccccc1
viability, T/C [1]: 97.5% | viability, T/C [2]: 102% | viability, T/C [3]: 103% | viability, T/C [4]: 101% | viability, T/C [5]: 98.7% | viability, T/C [6]: 62.4% | viability, T/C [7]: 95.5% | viability, T/C [8]: 107% | viability, T/C [9]: 116% | viability, T/C [10]: 107% | viability, T/C [11]: 91.5% | viability, T/C [12]: 69% | viability, T/C [13]: 98.8% | viability, T/C [14]: 101% | viability, T/C [15]: 113% | viability, T/C [16]: 109% | viability, T/C [17]: 97.1% | viability, T/C [18]: 58.7% | viability, T/C [19]: 102% | viability, T/C [20]: 111% | viability, T/C [21]: 100% | viability, T/C [22]: 103% | viability, T/C [23]: 98.1% | viability, T/C [24]: 62.2% | viability, T/C (second compound 3.16 µM, first compound 0.000316 µM): 105% | viability, T/C (second compound 3.16 µM, first compound 0.001 µM): 111% | viability, T/C (second compound 3.16 µM, first compound 0.00316 µM): 96.3% | viability, T/C (second compound 3.16 µM, first compound 0.01 µM): 97.1% | viability, T/C (second compound 3.16 µM, first compound 0.0316 µM): 85.3% | viability, T/C (second compound 3.16 µM, first compound 0.1 µM): 46.6% | viability, T/C (second compound 10 µM, first compound 0.000316 µM): 93.2% | viability, T/C (second compound 10 µM, first compound 0.001 µM): 91.3% | viability, T/C (second compound 10 µM, first compound 0.00316 µM): 95.1% | viability, T/C (second compound 10 µM, first compound 0.01 µM): 79.9% | viability, T/C (second compound 10 µM, first compound 0.0316 µM): 68.1% | viability, T/C (second compound 10 µM, first compound 0.1 µM): 37.6%
